Measurements from patent US8501816B2, “Antitussive compositions comprising memantine” (Cerecor, Inc., priority 2010, dated 2013).

Columns and labels:
[1] = Pharmacokinetics of memantine with sodium hydroxide, menthol and NH4Cl in male beagle dogs (Example 3); type: in vivo, beagle dog; details: male, beagle, dog, plasma, po, 0.4 mg/kg, MMT 0.4 mg/kg
[2] = tested on: histamine neuron activity; details: cited from earlier work
[3] = Pharmacokinetics of memantine after oral or buccal dosing in male beagle dogs (Example 2); type: in vivo, beagle dog; set-up: Cmax/Dose: unit not given beside the values; details: for AUC(0-inf) / AUC(0-t) / Cmax / Tmax / half-life: male, beagle, dog, plasma, 0.4 mg/kg
[4] = tested on: porcine buccal mucosa; assay: Memantine ex vivo buccal permeability; type: in vitro ADME
[5] = cited from earlier work
[6] = 3.3 mg/ml sodium hydroxide + 5 mg/ml menthol + 20 mg/kg NH4Cl
[7] = 3.3 mg/ml sodium hydroxide + 5 mg/ml menthol + 30 mg/kg NH4Cl
[8] = MMT 0.4 mg/kg Buccal + 3.3 mg/ml NaOH
[9] = MMT 0.4 mg/kg Buccal + 7.5 mg/ml Na2CO3
[10] = MMT 0.4 mg/kg Buccal, Control (water)
[11] = po, MMT 0.4 mg/kg Oral + 15 mg/kg NH4Cl
[12] = po, MMT 0.4 mg/kg Oral + 25 mg/kg NH4Cl
[13] = po, MMT 0.4 mg/kg Oral + 30 mg/kg NH4Cl
[14] = po, MMT 0.4 mg/kg Oral, ControlAve

`CC12CC3CC(C)(C1)CC(N)(C3)C2` [Memantine, 3,5-dimethyltricyclo[3.3.1.1^3,7]decan-1-amine] showed an AUC(0-inf) [1, 6] of 143 ng·h/mL, an AUC(0-t) [1, 6] of 134 ng·h/mL and a Cmax [1, 6] of 126 ng/mL. It also gave a Tmax [1, 6] of 9 min, a half-life [1, 6] of 276 min and an AUC(0-inf) [1, 7] of 125 ng·h/mL. For the same compound, the AUC(0-t) [1, 7] was 103 ng·h/mL, the Cmax [1, 7] was 43 ng/mL and the Tmax [1, 7] was 15 min. It also gave a half-life [1, 7] of 260 min, an AUC(0-inf) ([1]; Control) of 132 ng·h/mL and an AUC(0-t) ([1]; Control) of 120 ng·h/mL. It also gave a Cmax ([1]; Control) of 34.5 ng/mL, a Tmax ([1]; Control) of 45 min and a half-life ([1]; Control) of 431 min. For the same compound, the “ED50 of t-MeHA increase” value ([2]; acute administration) was 0.3 ± 0.1 mg/kg, the “increase of tele-methylhistamine (t-MeHA) levels in the brain” value ([2]; acute administration) was 60% and the “t-MeHA levels enhanced by” value ([2]; two days after 5 mg/kg twice daily for 5 days) was 50±7%. It also gave a Cmax/Dose ([3]; MMT 0.4 mg/kg Oral + 15 mg/kg NH4Cl) of 6.8, a Cmax/Dose ([3]; MMT 0.4 mg/kg Oral + 25 mg/kg NH4Cl) of 5.2 and a Cmax/Dose ([3]; MMT 0.4 mg/kg Oral + 30 mg/kg NH4Cl) of 5.4. The Cmax/Dose ([3]; MMT 0.4 mg/kg Oral, ControlAve) was 5.2, the AUC(0-inf) [3, 8] was 112 ng·h/mL and the AUC(0-t) [3, 8] was 108 ng·h/mL. The Cmax [3, 8] was 52 ng/mL, the Tmax [3, 8] was 0.25 h and the half-life [3, 8] was 312 min. It also gave an AUC(0-t) [3, 9] of 179 ng·h/mL, a Tmax [3, 9] of 0.45 h and a half-life [3, 9] of 270 min. It also gave a Cmax [3, 10] of 23 ng/mL, a Tmax [3, 10] of 0.75 h and a half-life [3, 10] of 312 min. For the same compound, the AUC(0-inf) [3, 11] was 256 ng·h/mL, the AUC(0-t) [3, 11] was 233 ng·h/mL and the Cmax [3, 11] was 25 ng/mL. For the same compound, the Tmax [3, 11] was 2 h, the half-life [3, 11] was 402 min and the AUC(0-inf) [3, 12] was 179 ng·h/mL. The AUC(0-t) [3, 12] was 169 ng·h/mL, the Cmax [3, 12] was 20 ng/mL and the Tmax [3, 12] was 1.5 h. For the same compound, the half-life [3, 12] was 330 min, the AUC(0-inf) [3, 13] was 168 ng·h/mL and the AUC(0-t) [3, 13] was 163 ng·h/mL. It also gave a Cmax [3, 13] of 25 ng/mL, a Tmax [3, 13] of 1.1 h and a half-life [3, 13] of 288 min. For the same compound, the AUC(0-inf) [3, 14] was 210 ng·h/mL, the AUC(0-t) [3, 14] was 190 ng·h/mL and the Cmax [3, 14] was 22 ng/mL. For the same compound, the Tmax [3, 14] was 1.7 h, the half-life [3, 14] was 390 min and the “increase in permeability of memantine” value ([4]; increase in pH from 5.5 to 9.0) was “over 100 fold”. The “increase in permeability of memantine” value ([4]; increase in pH from 8.0 to 9.0) was “about 3.8 fold”, the solubility ([5]; all physiological pHs) was > 30 mg/mL and the “Biopharmaceutics Classification System (BCS) class” value ([5]; highly soluble/highly permeable) was “class I”.
